Assays:
myogenin = test: Examination 1: myogenin gene expression in superficial pectoral muscle (real-time PCR, relative to RPS9); format: in vivo, broiler chicks of the Chunky breed (Ross 308); conditions: 3 days old, GSSG addition group (0.01% or 0.1% feed), FIG. 1B, n=6
Text: (§1) FIGS. 1A to 1D illustrate graphs showing the expression of genes related to skeletal muscle cell differentiation in superficial pectoral muscles upon administration of each feed composition in Examination 1 (n=6). […] A relative value of the expression level of each factor is expressed as an average±standard deviation of values obtained by dividing the expression levels of each factor by the expression level of RPS9. Each different symbol denotes a significant difference in the […] multiple comparison test (P<0.05). Newly hatched broiler chicks of the Chunky breed (Ross 308, Ross Breeders Ltd.) were tested. […] Real-time PCR was performed by adding cDNA, a primer set, and other necessary reagents to wells of a 96-well PCR plate, preheating the plate using a thermal cycler at 95° C. for 3 minutes, followed by 35 cycles of steps of denaturation, annealing, and elongation in a repetitive manner, and measurement of […] after the elongation step for each cycle. The expression level of each gene was designated as a relative value obtained by dividing the determined amount of an amplification product of IGF-I, myostatin, MyoD, or myogenin by the amount of an amplification product of RPS9. […] The amount of GSSG used herein was determined in terms of the amount of free oxidized glutathione. […]

[1] = Examination 6: body weight at 21 days old after GSSG feed (0.01% or 0.05%) for 3 days; format: in vivo, broiler chicks; conditions: n = 12
Experimental: Newly hatched broiler chicks (Ross Breeders Ltd.) were fed with a feed composition containing GSSG at 0.01% by mass or 0.05% by mass for 3 days. […] Three groups, which were a control group, a GSSG addition group (0.01% by mass), and a GSSG addition group (0.05% by mass), were set. In each group, 6 males and 6 females were tested. Chicks received at 0 day old were fed with a test feed composition (initial-phase feed composition) during 72 hours after the receipt. […] Their body weights were measured. A feed composition used as an initial-phase feed composition, for which the level of GSSG was set to 0.01% by mass or […], is a composition prepared by adding GSSG at 0.01% by mass or 0.1% by mass to a composition (ME3,100 kcal/kg, CP21) containing corn, soybean meal, corn gluten meal, fat and oil, calcium carbonate (powder), tricalcium phosphate, dietary salt, DL-methionine, L-lysine chloride, choline chloride, and vitamins/minerals in accordance with the NRC requirements. The feed composition (ME3,100 kcal/kg, CP21) free of GSSG used in Examination 1 was used for the control group. […] An ammonium salt was used as GSSG. The GSSG contained 95.6% by mass of oxidized glutathione, and the content of reduced glutathione mixed therein was 0.1% by mass or less.

myostatin = test: Examination 1: myostatin gene expression in superficial pectoral muscle (real-time PCR, relative to RPS9); format: in vivo, broiler chicks of the Chunky breed (Ross 308); conditions: 3 days old, GSSG addition group (0.01% or 0.1% feed), FIG. 1C, n=6
Text: as §1

[2] = Examination 4: body weight of chicks raised until 35 days old after feeding GSSG or GSH for 3 days; format: in vivo, broiler chicks; conditions: 0.01% by mass additive in feed for 3 days; n = 6, average ± standard deviation
Experimental: Newly hatched broiler chicks (Ross Breeders Ltd.) were tested. A control group (=additive-free group), a GSSG addition group (0.01% by mass), and a GSH addition group (0.01% by mass) each consisting of 5 males and 5 females were set and fed with a feed composition for 3 days. […] At this timing, 2 males and 2 females in each group were slaughtered to collect blood and skeletal muscles. The gene expression levels of the MyoD family (myogenin, myostatin, and Pax7) were observed. […] Statistics were analyzed using a mixed model in consideration of a gender difference and an interaction between males and females. An ammonium salt was used as oxidized glutathione (GSSG). The GSSG contained 95.6% by mass of oxidized glutathione, and the content of reduced glutathione mixed therein was 0.1% by mass or less. […] A feed composition, for which the amount of oxidized glutathione (GSSG) added was set to 0.01% by mass, is described in Examination 1. A feed composition, for which the amount of reduced glutathione (GSH) added was set to 0.01% by mass, was prepared by adding 0.01% by mass of GSH, instead of 0.01% by mass of GSSG, to the GSSG-containing feed composition described in detail in Examination 1.

[3] = Examination 1: body weight of initial-phase chicks fed additive-containing feed for 3 days; format: in vivo, broiler chicks of the Chunky breed (Ross 308); conditions: n = 6
Experimental: Newly hatched broiler chicks of the Chunky breed (Ross 308, Ross Breeders Ltd.) were tested. […] Blood and skeletal muscles were collected to observe gene expression levels of MyoD, myogenin, myostatin, and IGF-I (insulin-like growth factor-I). An ammonium salt was used as oxidized glutathione (GSSG). The GSSG contained 95.6% by mass of oxidized glutathione, and the content of reduced glutathione mixed therein was 0.1% by mass or less. […] The amount of GSSG used herein was determined in terms of the amount of free oxidized glutathione. In all the following Examinations, the amounts of GSSG are expressed in terms of the amount of free oxidized glutathione.

## oxidized glutathione [GSSG]
myogenin
  myogenin expression level vs control group: significant decreases
[1]; GSSG 0.01% by mass in feed for 3 days
  21-day-old weight: 961 ± 84 g
[1]; GSSG 0.05% by mass in feed for 3 days
  21-day-old weight: 986 ± 67 g
myostatin
  myostatin expression level vs control group: significant decreases
[2]
  Weight, 14 days old: 524.5 ± 37.0 g
  Weight, 35 days old: 2164 ± 178 g
[3]; feed with 0.01% by mass GSSG for 3 days
  Weight at 3 days old: 78.1 ± 4.0 g
[3]; feed with 0.1% by mass GSSG for 3 days
  Weight at 3 days old: 72.8 ± 5.6 g
